Test system: 624824-186-R-J2-PDC multicell spheroids, viability
Test: Anticancer human tumor 624824-186-R-J2-PDC patient-derived colon adenocarcinoma cell line growth inhibition [PI3K]
Details: for IC50: curve of first compound; for viability, T/C: stronger effect = lower value; active = viability on the fitted dose curve at most 10% of control; inactive = the rest
How it was run: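 Tumor cells grown as multi-cell spheroids with HUVEC endothelial cells and MSC fibroblast-like stroma were treated with targeted agents combined with inavolisib, alpelisib, duvelisib or copanlisib. Doses fell in half-log steps from near clinical Cmax, else from 10 microM. Viability was measured.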

[1] = second compound 0.00316 µM, first compound 0.0316 µM
[2] = second compound 0.00316 µM, first compound 0.1 µM
[3] = second compound 0.00316 µM, first compound 0.316 µM
[4] = second compound 0.00316 µM, first compound 1 µM
[5] = second compound 0.00316 µM, first compound 3.16 µM
[6] = second compound 0.00316 µM, first compound 10 µM
[7] = second compound 0.01 µM, first compound 0.0316 µM
[8] = second compound 0.01 µM, first compound 0.1 µM
[9] = second compound 0.01 µM, first compound 0.316 µM
[10] = second compound 0.01 µM, first compound 1 µM
[11] = second compound 0.01 µM, first compound 3.16 µM
[12] = second compound 0.01 µM, first compound 10 µM
[13] = second compound 0.0316 µM, first compound 0.0316 µM
[14] = second compound 0.0316 µM, first compound 0.1 µM
[15] = second compound 0.0316 µM, first compound 0.316 µM
[16] = second compound 0.0316 µM, first compound 1 µM
[17] = second compound 0.0316 µM, first compound 3.16 µM
[18] = second compound 0.0316 µM, first compound 10 µM
[19] = second compound 0.1 µM, first compound 0.0316 µM
[20] = second compound 0.1 µM, first compound 0.1 µM
[21] = second compound 0.1 µM, first compound 0.316 µM
[22] = second compound 0.1 µM, first compound 1 µM
[23] = second compound 0.1 µM, first compound 3.16 µM
[24] = second compound 0.1 µM, first compound 10 µM
[25] = second compound 0.316 µM, first compound 0.0316 µM
[26] = second compound 0.316 µM, first compound 0.1 µM
[27] = second compound 0.316 µM, first compound 0.316 µM
[28] = second compound 0.316 µM, first compound 1 µM
[29] = second compound 0.316 µM, first compound 3.16 µM
[30] = second compound 0.316 µM, first compound 10 µM
[31] = second compound 1 µM, first compound 0.0316 µM
[32] = second compound 1 µM, first compound 0.1 µM
[33] = second compound 1 µM, first compound 0.316 µM
[34] = second compound 1 µM, first compound 1 µM
[35] = second compound 1 µM, first compound 3.16 µM
[36] = second compound 1 µM, first compound 10 µM
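Also: spheroids exposed to agents for 7 days before viability read.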
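For viability, T/C in this document: 100% = DMSO vehicle treated spheroids.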

C=CC(=O)N1CCN(c2nc(=O)n(-c3c(C)ccnc3C(C)C)c3nc(-c4c(O)cccc4F)c(F)cc23)C(C)C1 (stereo not drawn) + CC(Nc1ccc2c(c1)OCCn1cc(N3C(=O)OCC3C(F)F)nc1-2)C(N)=O
inactive: viability, T/C [1] 103% | viability, T/C [2] 88.3% | viability, T/C [3] 94.2% | viability, T/C [4] 97.8% | viability, T/C [5] 117% | viability, T/C [6] 110% | viability, T/C [7] 92.6% | viability, T/C [8] 88% | viability, T/C [9] 88.3% | viability, T/C [10] 87.7% | viability, T/C [11] 80.3% | viability, T/C [12] 96.9% | viability, T/C [13] 109% | viability, T/C [14] 92.3% | viability, T/C [15] 105% | viability, T/C [16] 87.3% | viability, T/C [17] 101% | viability, T/C [18] 85.4% | viability, T/C [19] 112% | viability, T/C [20] 82.1% | viability, T/C [21] 106% | viability, T/C [22] 104% | viability, T/C [23] 81.2% | viability, T/C [24] 103% | viability, T/C [25] 83.3% | viability, T/C [26] 104% | viability, T/C [27] 107% | viability, T/C [28] 84.1% | viability, T/C [29] 88.7% | viability, T/C [30] 79.2% | viability, T/C [31] 90.7% | viability, T/C [32] 90% | viability, T/C [33] 81.1% | viability, T/C [34] 92.4% | viability, T/C [35] 85.6% | viability, T/C [36] 78%
> 10 µM: IC50 (second compound 0.00316 µM) | IC50 (second compound 0.01 µM) | IC50 (second compound 0.0316 µM) | IC50 (second compound 0.1 µM) | IC50 (second compound 0.316 µM) | IC50 (second compound 1 µM)

CC(Cn1ccc(-c2ccc(C#N)c(Cl)c2)n1)NC(=O)c1cc(C(C)O)[nH]n1 (stereo not drawn) + CC(Nc1ccc2c(c1)OCCn1cc(N3C(=O)OCC3C(F)F)nc1-2)C(N)=O
> 10 µM: IC50 (second compound 0.00316 µM) | IC50 (second compound 0.01 µM) | IC50 (second compound 0.0316 µM) | IC50 (second compound 0.1 µM) | IC50 (second compound 0.316 µM) | IC50 (second compound 1 µM)
inactive: viability, T/C [1] 86.5% | viability, T/C [2] 102% | viability, T/C [3] 108% | viability, T/C [4] 103% | viability, T/C [5] 107% | viability, T/C [6] 127% | viability, T/C [7] 124% | viability, T/C [8] 88.3% | viability, T/C [9] 88.5% | viability, T/C [10] 97.7% | viability, T/C [11] 99.5% | viability, T/C [12] 116% | viability, T/C [13] 77.1% | viability, T/C [14] 79.6% | viability, T/C [15] 83.1% | viability, T/C [16] 93.9% | viability, T/C [17] 108% | viability, T/C [18] 104% | viability, T/C [19] 81.5% | viability, T/C [20] 77.9% | viability, T/C [21] 76.9% | viability, T/C [22] 82.1% | viability, T/C [23] 93.2% | viability, T/C [24] 103% | viability, T/C [25] 76.7% | viability, T/C [26] 91.1% | viability, T/C [27] 103% | viability, T/C [28] 69.4% | viability, T/C [29] 83.4% | viability, T/C [30] 95.9% | viability, T/C [31] 87.9% | viability, T/C [32] 76% | viability, T/C [33] 88.2% | viability, T/C [34] 94% | viability, T/C [35] 76.4% | viability, T/C [36] 95.9%

Cn1ncc(Cl)c1-c1cc(C(=O)NC(CN)Cc2cccc(F)c2)sc1Cl (stereo not drawn) + CC(Nc1ccc2c(c1)OCCn1cc(N3C(=O)OCC3C(F)F)nc1-2)C(N)=O
inactive: viability, T/C [1] 106% | viability, T/C [2] 97.5% | viability, T/C [3] 75.8% | viability, T/C [4] 87.1% | viability, T/C [5] 67.7% | viability, T/C [6] 78.8% | viability, T/C [7] 107% | viability, T/C [8] 78.8% | viability, T/C [9] 70.9% | viability, T/C [10] 78.8% | viability, T/C [11] 79.6% | viability, T/C [12] 50.4% | viability, T/C [13] 101% | viability, T/C [14] 71.9% | viability, T/C [15] 75.7% | viability, T/C [16] 85.9% | viability, T/C [17] 78.7% | viability, T/C [18] 58.8% | viability, T/C [19] 75% | viability, T/C [20] 100% | viability, T/C [21] 74.5% | viability, T/C [22] 81.8% | viability, T/C [23] 76.9% | viability, T/C [24] 53.1% | viability, T/C [25] 71.3% | viability, T/C [26] 81.5% | viability, T/C [27] 92.6% | viability, T/C [28] 85.1% | viability, T/C [29] 75.4% | viability, T/C [30] 57.3% | viability, T/C [31] 86.7% | viability, T/C [32] 77.8% | viability, T/C [33] 95.4% | viability, T/C [34] 76.7% | viability, T/C [35] 75.7% | viability, T/C [36] 59.3%
> 10 µM: IC50 (second compound 0.00316 µM) | IC50 (second compound 0.01 µM) | IC50 (second compound 0.0316 µM) | IC50 (second compound 0.1 µM) | IC50 (second compound 0.316 µM) | IC50 (second compound 1 µM)

Cn1nccc1Nc1nccc(-c2ccn(C(CO)c3ccc(Cl)c(F)c3)c(=O)c2)n1 (stereo not drawn) + CC(Nc1ccc2c(c1)OCCn1cc(N3C(=O)OCC3C(F)F)nc1-2)C(N)=O
inactive: viability, T/C [1] 79.4% | viability, T/C [2] 78.9% | viability, T/C [3] 80.1% | viability, T/C [4] 84.7% | viability, T/C [5] 104% | viability, T/C [6] 99.5% | viability, T/C [7] 80.5% | viability, T/C [8] 73.6% | viability, T/C [9] 77.6% | viability, T/C [10] 90.5% | viability, T/C [11] 102% | viability, T/C [12] 116% | viability, T/C [13] 79% | viability, T/C [14] 71.8% | viability, T/C [15] 72% | viability, T/C [16] 91.6% | viability, T/C [17] 86.6% | viability, T/C [18] 93.2% | viability, T/C [19] 87.5% | viability, T/C [20] 61.4% | viability, T/C [21] 68.8% | viability, T/C [22] 95.6% | viability, T/C [23] 84.9% | viability, T/C [24] 59% | viability, T/C [25] 63% | viability, T/C [26] 63.5% | viability, T/C [27] 68.6% | viability, T/C [28] 73.7% | viability, T/C [29] 63.9% | viability, T/C [30] 40.4% | viability, T/C [31] 73.1% | viability, T/C [32] 86.4% | viability, T/C [33] 61% | viability, T/C [34] 52.9% | viability, T/C [35] 42.5% | viability, T/C [36] 29%
> 10 µM: IC50 (second compound 0.00316 µM) | IC50 (second compound 0.01 µM) | IC50 (second compound 0.0316 µM) | IC50 (second compound 0.1 µM) | IC50 (second compound 0.316 µM)
1.33 µM: IC50 (second compound 1 µM)

From PubChem BioAssay AID1963975 (Molecular Pharmacology Branch, DTP, NCI, 2024)
